Common to all, as to type: cell-based
One test relates to HIV-1 strain 92HT599. Kind of test: Antiviral activity against HIV-1 strain 92HT599 in MT2 cells (p24 estimation). Particulars: HIV-1 92HT599, ~96 hours. Here is the method: Example 77: Evaluation of Compounds Antiviral Activity Against HIV-1 Strain 92HT599 in MT2 Cells
MT2 cells were infected with HIV-1 strain 92HT599 (10 TCID 50/30000 cells). The infected cells were plated at the concentration of 30,000 cells per well in 96 well plate. Test compound was added to the micro plate in defined format with the final concentration of DMSO (vehicle) is not more than 1%. Incubation was carried out in CO2 incubator for ˜96 hours for viral infection. At the end of incubation period an aliquot from each well was taken for p24 estimation. The quantitation of p24 is an index for antiviral activity of the compound. Percent inhibition was calculated with reference to control values (vehicle controls). p24 estimation was carried out using Advance biosciences kit as per the procedure detailed by supplier.

Another test has as its system HIV-1 pNL4-3 WT. Kind of test: Antiviral activity against pNL4-3/WT strain in MT4 cells (p24 estimation). Particulars: Human immunodeficiency virus 1, MT4, 96 h, read-out: pNL4-3 WT IC50. As for the experimental part:
(§1) Example 78: Evaluation of Compounds Antiviral Activity Against pNL4-3/WT & V7A Strains in MT4 Cells
(§2) MT4 cells were Transfected with HIV-1 Plasmid (pNL4-3-WT & V7A) (Cells were incubating with required number of TCID50 of HIV-1 for 1.5 h at 37° C.). After infection, the infected cells were plated at the concentration of 3×10^4 cells per well in 96 well plate. Test compound was added to the test plate in defined format with the final concentration of DMSO is not more than 1%. Incubation was carried out in CO2 incubator for 4 days for viral infection. At the end of incubation period an aliquot from each well was taken for p24 estimation. p24 estimation was carried out using Advance biosciences kit as per the procedure detailed by supplier.

For another test, the system named is HIV-1 pNL4-3 V7A. Briefly: Antiviral activity against pNL4-3/V7A strain in MT4 cells (p24 estimation). The following applies: Human immunodeficiency virus 1, MT4, 96 h, read-out: pNL4-3 V7A IC50. Here is the method: as §1, §2
[1] abbreviates: Human immunodeficiency virus 1, 0% serum binding assay, read-out: IC50 0% serum.
[2] abbreviates: Human immunodeficiency virus 1, 40% serum binding assay, read-out: IC50 40% serum.

This passage reports IC50 results from US11034718B2, “C-3 novel triterpenone with C-17 reverse amide derivatives as HIV inhibitors” (HETERO LABS LIMITED, priority 2015, dated 2021).

One may read the IC50 as the concentration that gives 50% inhibition.

Counter-ions that a name gives are not always drawn. Like-named read-outs stand apart in the source and are kept apart here.

For the compound `CC(C)C1=C2[C@H]3CC[C@@H]4[C@@]5(C)CC[C@H](OC(=O)[C@H]6C[C@@H](C(=O)O)C6(C)C)C(C)(C)[C@@H]5CC[C@@]4(C)[C@]3(C)CC[C@@]2(NC(=O)C2(NC(=O)c3cccnc3N3CCOCC3)CCC2)CC1=O` [Example 45, (1R,3S)-3-((((3aR,5aR,5bR,7aR,9S,11aR,11bR,13aS)-1-isopropyl-5a,5b,8,8,11a-pentamethyl-3a-(1-(2-morpholinonicotinamido)cyclobutane-1-carboxamido)-2-oxo-3,3a,4,5,5a,5b,6,7,7a,8,9,10,11,11a,11b,12,13,13a-octadecahydro-2H-cyclopenta[a]chrysen-9-yl)oxy)carbonyl)-2,2-dimethylcyclobutane-1-carboxylic acid], the half-maximal inhibitory concentration (IC50) in the test on HIV-1 strain 92HT599 (setting [1]) was 3.01 to 10 nM; in the test on HIV-1 strain 92HT599 (setting [2]), less than 50 nM; with HIV-1 pNL4-3 WT it was less than 5 nM; in the test with HIV-1 pNL4-3 V7A, 10 to 50 nM.

Turning to `Cc1cnc(C(=O)NC(C)(C)C(=O)N[C@@]23CC[C@]4(C)[C@H](CC[C@@H]5[C@@]6(C)CC[C@H](OC(=O)[C@H]7C[C@@H](C(=O)O)C7(C)C)C(C)(C)[C@@H]6CC[C@]54C)C2=C(C(C)C)C(=O)C3)cn1` [Example 7, (1R,3S)-3-((((3aR,5aR,5bR,7aR,9S,11aR,11bR,13aS)-1-isopropyl-5a,5b,8,8,11a-pentamethyl-3a-(2-methyl-2-(5-methylpyrazine-2-carboxamido)propanamido)-2-oxo-3,3a,4,5,5a,5b,6,7,7a,8,9,10,11,11a,11b,12,13,13a-octadecahydro-2H-cyclopenta[a]chrysen-9-yl)oxy)carbonyl)-2,2-dimethylcyclobutane-1-carboxylic acid], the IC50 with HIV-1 strain 92HT599 (setting [1]) was less than 3 nM; with HIV-1 strain 92HT599 (setting [2]) it was less than 50 nM; with HIV-1 pNL4-3 WT it was less than 5 nM; with HIV-1 pNL4-3 V7A it was less than 10 nM.

As to `Cc1cccnc1C(=O)NC(C)(C)C(=O)N[C@@]12CC[C@]3(C)[C@H](CC[C@@H]4[C@@]5(C)CC[C@H](OC(=O)[C@H]6C[C@@H](C(=O)O)C6(C)C)C(C)(C)[C@@H]5CC[C@]43C)C1=C(C(C)C)C(=O)C2` [Example 29, (1R,3S)-3-((((3aR,5aR,5bR,7aR,9S,11aR,11bR,13aS)-1-isopropyl-5a,5b,8,8,11a-pentamethyl-3a-(2-methyl-2-(3-methylpicolinamido)propanamido)-2-oxo-3,3a,4,5,5a,5b,6,7,7a,8,9,10,11,11a,11b,12,13,13a-octadecahydro-2H-cyclopenta[a]chrysen-9-yl)oxy)carbonyl)-2,2-dimethylcyclobutane-1-carboxylic acid], the IC50 in the test on HIV-1 pNL4-3 WT is less than 5 nM; in the test on HIV-1 pNL4-3 V7A, 10 to 50 nM.

Take `CC(C)C1=C2[C@H]3CC[C@@H]4[C@@]5(C)CC[C@H](OC(=O)[C@H]6C[C@@H](C(=O)O)C6(C)C)C(C)(C)[C@@H]5CC[C@@]4(C)[C@]3(C)CC[C@@]2(NC(=O)C(C)(C)N)CC1=O` [Example 74, (1R,3S)-3-((((3aR,5aR,5bR,7aR,9S,11aR,11bR,13aS)-3a-(2-amino-2-methylpropanamido)-1-isopropyl-5a,5b,8,8,11a-pentamethyl-2-oxo-3,3a,4,5,5a,5b, 6,7,7a,8,9,10,11,11a,11b,12,13,13a-octadecahydro-2H-cyclopenta[a]chrysen-9-yl)oxy)carbonyl)-2,2-dimethylcyclobutane-1-carboxylic acid hydrochloride]: the values for the IC50 in the test on HIV-1 strain 92HT599 (setting [1]) and in the test with HIV-1 strain 92HT599 (setting [2]) were less than 3 nM and less than 50 nM, respectively.

In the case of `CC(C)C1=C2[C@H]3CC[C@@H]4[C@@]5(C)CC[C@H](OC(=O)[C@H]6C[C@@H](C(=O)O)C6(C)C)C(C)(C)[C@@H]5CC[C@@]4(C)[C@]3(C)CC[C@@]2(NC(=O)C(C)(C)NC(=O)CN(C)C)CC1=O` [Example 59, (1R,3S)-3-((((3aR,5aR,5bR,7aR,9S,11aR,11bR,13aS)-3a-(2-(2-(dimethylamino)acetamido)-2-methylpropanamido)-1-isopropyl-5a,5b,8,8,11a-pentamethyl-2-oxo-3,3a,4,5,5a,5b,6,7,7a,8,9,10,11,11a,11b,12,13,13a-octadecahydro-2H-cyclopenta[a]chrysen-9-yl)oxy)carbonyl)-2,2-dimethylcyclobutane-1-carboxylic acid], the results for the IC50 with HIV-1 strain 92HT599 (setting [1]) and in the test on HIV-1 strain 92HT599 (setting [2]) were less than 3 nM and 50 to 200 nM, respectively.

As to `CC(C)C1=C2[C@H]3CC[C@@H]4[C@@]5(C)CC[C@H](OC(=O)[C@@H]6C[C@H](C(=O)O)C6(C)C)C(C)(C)[C@@H]5CC[C@@]4(C)[C@]3(C)CC[C@@]2(NC(=O)C(C)(C)NC(=O)c2ccc(Cl)cc2)CC1=O` [Example 21, (1S,3R)-3-((((3aR,5aR,5bR,7aR,9S,11aR,11bR,13aS)-3a-(2-(4-chlorobenzamido)-2-methylpropanamido)-1-isopropyl-5a,5b,8,8,11a-pentamethyl-2-oxo-3,3a,4,5,5a,5b,6,7,7a,8,9,10,11,11a,11b,12,13,13a-octadecahydro-2H-cyclopenta[a]chrysen-9-yl)oxy)carbonyl)-2,2-dimethylcyclobutane-1-carboxylic acid], the values for the IC50 with HIV-1 strain 92HT599 (setting [1]) and with HIV-1 strain 92HT599 (setting [2]) were 3.01 to 10 nM and less than 50 nM, respectively.

Take `Cc1ccc(NC(=O)NC(C)(C)C(=O)N[C@@]23CC[C@]4(C)[C@H](CC[C@@H]5[C@@]6(C)CC[C@H](OC(=O)[C@H]7C[C@@H](C(=O)O)C7(C)C)C(C)(C)[C@@H]6CC[C@]54C)C2=C(C(C)C)C(=O)C3)cn1` [Example 71, (1R,3S)-3-((((3aR,5aR,5bR,7aR,9S,11aR,11bR,13aS)-1-isopropyl-5a,5b,8,8,11a-pentamethyl-3a-(2-methyl-2-(3-(6-methylpyridin-3-yl)ureido)propanamido)-2-oxo-3,3a,4,5,5a,5b,6,7,7a,8,9,10,11,11a,11b,12,13,13a-octadecahydro-2H-cyclopenta[a]chrysen-9-yl)oxy)carbonyl)-2,2-dimethylcyclobutane-1-carboxylic acid]: the IC50 in the test with HIV-1 strain 92HT599 (setting [1]) was less than 3 nM; with HIV-1 strain 92HT599 (setting [2]), 50 to 200 nM.

As to `CC(C)C1=C2[C@H]3CC[C@@H]4[C@@]5(C)CC[C@H](OC(=O)[C@H]6C[C@@H](C(=O)O)C6(C)C)C(C)(C)[C@@H]5CC[C@@]4(C)[C@]3(C)CC[C@@]2(NC(=O)C(C)(C)NC(=O)C2(c3ccccc3)CCCC2)CC1=O` [Example 27, (1R,3S)-3-((((3aR,5aR,5bR,7aR,9S,11aR,11bR,13aS)-1-isopropyl-5a,5b,8,8,11a-pentamethyl-3a-(2-methyl-2-(1-phenylcyclopentane-1-carboxamido)propanamido)-2-oxo-3,3a,4,5,5a,5b,6,7,7a,8,9,10,11,11a,11b,12,13,13a-octadecahydro-2H-cyclopenta[a]chrysen-9-yl)oxy)carbonyl)-2,2-dimethylcyclobutane-1-carboxylic acid], the results for the IC50 in the test with HIV-1 strain 92HT599 (setting [1]) and with HIV-1 strain 92HT599 (setting [2]) were 3.01 to 10 nM and 50 to 200 nM, respectively.

As for `CC(C)C1=C2[C@H]3CC[C@@H]4[C@@]5(C)CC[C@H](OC(=O)[C@H]6C[C@@H](C(=O)O)C6(C)C)C(C)(C)[C@@H]5CC[C@@]4(C)[C@]3(C)CC[C@@]2(NC(=O)C2(NC(=O)c3ccc(Cl)cc3)CCCC2)CC1=O` [Example 46, (1R,3S)-3-((((3aR,5aR,5bR,7aR,9S,11aR,11bR,13aS)-3a-(1-(4-chlorobenzamido)cyclopentane-1-carboxamido)-1-isopropyl-5a,5b,8,8,11a-pentamethyl-2-oxo-3,3a,4,5,5a,5b,6,7,7a,8,9,10,11,11a,11b,12,13,13a-octadecahydro-2H-cyclopenta[a]chrysen-9-yl)oxy)carbonyl)-2,2-dimethylcyclobutane-1-carboxylic acid], the IC50 in the test with HIV-1 strain 92HT599 (setting [1]) was less than 3 nM; with HIV-1 strain 92HT599 (setting [2]), less than 50 nM.

Take `CC(C)C1=C2[C@H]3CC[C@@H]4[C@@]5(C)CC[C@H](OC(=O)[C@H]6C[C@@H](C(=O)O)C6(C)C)C(C)(C)[C@@H]5CC[C@@]4(C)[C@]3(C)CC[C@@]2(NC(=O)C(C)(C)NC(=O)c2ccoc2)CC1=O` [Example 24, (1R,3S)-3-((((3aR,5aR,5bR,7aR,9S,11aR,11bR,13aS)-3a-(2-(furan-3-carboxamido)-2-methylpropanamido)-1-isopropyl-5a,5b, 8,8,11a-pentamethyl-2-oxo-3,3a,4,5,5a,5b,6,7,7a,8,9,10,11,11a,11b,12,13,13a-octadecahydro-2H-cyclopenta[a]chrysen-9-yl)oxy)carbonyl)-2,2-dimethylcyclobutane-1-carboxylic acid]: the results for the half-inhibitory concentration (IC50) with HIV-1 strain 92HT599 (setting [1]) and in the test with HIV-1 strain 92HT599 (setting [2]) were less than 3 nM and 50 to 200 nM, respectively.

On to `CC(C)C1=C2[C@H]3CC[C@@H]4[C@@]5(C)CC[C@H](OC(=O)[C@H]6C[C@@H](C(=O)O)C6(C)C)C(C)(C)[C@@H]5CC[C@@]4(C)[C@]3(C)CC[C@@]2(NC(=O)C(C)(C)NC(=O)c2ccc(N)nc2)CC1=O` [Example 6, (1R,3S)-3-((((3aR,5aR,5bR,7aR,9S,11aR,11bR,13aS)-3a-(2-(6-aminonicotinamido)-2-methylpropanamido)-1-isopropyl-5a,5b,8,8,11a-pentamethyl-2-oxo-3,3a,4,5,5a,5b,6,7,7a,8,9,10,11,11a,11b,12,13,13a-octadecahydro-2H-cyclopenta[a]chrysen-9-yl)oxy)carbonyl)-2,2-dimethylcyclobutane-1-carboxylic acid], for which the values for the IC50 in the test with HIV-1 strain 92HT599 (setting [1]) and with HIV-1 strain 92HT599 (setting [2]) were less than 3 nM and 50 to 200 nM, respectively.
